Measurements taken from patent publication US20020035061A1, “COMPOSITIONS AND METHODS FOR TREATING INFECTIONS USING CATIONIC PEPTIDES ALONE OR IN COMBINATION WITH ANTIBIOTICS” (priority 1996, published 2002).
In brackets after ≈: the same amount, converted by molar mass. Several values for one entry are separate records, joined by “and”; a condition that tells them apart may be missing. Equal entries are not always repeated. Where two headings read alike, the source gives them in different places.

Experiments:
Assay in all cases: microbe, parasite or virus in culture
Assay type in all cases: cell-based
[1] = system: microorganisms with acquired resistance; conditions: for Peptide MIC: in µg/mL
bacterial isolates = conditions: for FIC: combination with Ampicillin
[2] = system: inherently resistant microorganisms
[3] = Staphylococcus aureus, read-out: MIC alone (antibiotic agent), S. aureus
[4] = Staphylococcus haemolyticus, read-out: MIC alone (antibiotic agent), S. haemolyticus

## Gentamicin
[1]; A. baumannii ABI002
  Gentamicin MIC Alone: 16 µg/mL and 32 µg/mL
[1]; A. calcoaceticus AC001
  Gentamicin MIC Alone: 8 µg/mL
[1]; P. aeruginosa PA022
  Gentamicin MIC Alone: 32 µg/mL
[1]; P. aeruginosa PA023
  Gentamicin MIC Alone: 8 µg/mL and 16 µg/mL
[1]; P. aeruginosa PA041
  Gentamicin MIC Alone: 8 µg/mL and 16 µg/mL
Bacterial isolates; A. calcoaceticus AC001
  Gentamicin MIC Alone: 8 µg/mL
Bacterial isolates; E. faecalis EFS008
  Gentamicin MIC Alone: >128 µg/mL and 128 µg/mL
Bacterial isolates; E. faecium EFM004
  Gentamicin MIC Alone: >128 µg/mL
Bacterial isolates; P. aeruginosa PA022
  Gentamicin MIC Alone: 32 µg/mL and 16 µg/mL
Bacterial isolates; P. aeruginosa PA023
  Gentamicin MIC Alone: 8 µg/mL
Bacterial isolates; P. aeruginosa PA041
  Gentamicin MIC Alone: 8 µg/mL and 16 µg/mL
Bacterial isolates; S. aureus SA014 MRSA
  Gentamicin MIC Alone: 32 µg/mL
Bacterial isolates; S. epidermidis SE071
  Gentamicin MIC Alone: 16 µg/mL
Bacterial isolates; S. epidermidis SE074
  Gentamicin MIC Alone: 128 µg/mL
Bacterial isolates; S. maltophilia (strain line r400 not shown)
  Gentamicin MIC Alone: 128 µg/mL
Bacterial isolates; S. maltophilia SMA016
  Gentamicin MIC Alone: >128 µg/mL and 128 µg/mL
Bacterial isolates; S. maltophilia SMA017
  Gentamicin MIC Alone: 128 µg/mL
[2]; S. aureus MRSA
  Gentamicin MIC Alone: 32 µg/mL
[2]; S. aureus MRSA, peptide MBI 11B16CN
  Gentamicin MIC + Peptide: 1 µg/mL

## CC(C)(O/N=C(\C(=O)N[C@@H]1C(=O)N2C(C(=O)[O-])=C(C[n+]3ccccc3)CS[C@H]12)c1csc(N)n1)C(=O)O [Ceftazidime]
[1]; A. calcoaceticus, with MBI 26
  MIC comb. (antibiotic agent): 2 µg/mL (≈ 3.66 µM)
[1]; A. calcoaceticus, with MBI 29
  MIC comb. (antibiotic agent): 2 µg/mL (≈ 3.66 µM)
[1]; Acinetobacter calcoaceticus, read-out: MIC alone (antibiotic agent), A. calcoaceticus
  MIC: 32 µg/mL (≈ 58.5 µM)
[1]; P. aeruginosa, with MBI 29
  MIC comb. (antibiotic agent): 16 µg/mL (≈ 29.3 µM)
[1]; Pseudomonas aeruginosa, read-out: MIC alone (antibiotic agent), P. aeruginosa
  MIC: 64 µg/mL (≈ 117 µM)

## KKWWRRVLKGLSSGPALSNV [MBI 21A10]
[1]; S. aureus, combination with Mupirocin
  Peptide MIC: 32

## GKPRPYSPIPTSPRPIRY [MBI 31]
[1]; S. aureus, combination with Erythromycin
  Peptide MIC: 0.125
Bacterial isolates; S. epidermidis SE8416
  FIC: 0.52
Bacterial isolates; S. epidermidis SH8575
  FIC: 0.27
Bacterial isolates; S. haemolyticus SA7797
  FIC: 0.50
Bacterial isolates; S. haemolyticus SA7817
  FIC: 0.26
Bacterial isolates; S. haemolyticus SA7818
  FIC: 0.52
Bacterial isolates; S. haemolyticus SA7834
  FIC: 0.52
Bacterial isolates; S. haemolyticus SA7835
  FIC: 0.50
Bacterial isolates; S. haemolyticus SH8597
  FIC: 1.00

## CC[C@H]1OC(=O)[C@H](C)[C@@H](O[C@H]2C[C@@](C)(OC)[C@@H](O)[C@H](C)O2)[C@H](C)[C@@H](O[C@@H]2O[C@H](C)C[C@H](N(C)C)[C@H]2O)[C@](C)(O)C[C@@H](C)C(=O)[C@H](C)[C@@H](O)[C@]1(C)O [Erythromycin]
[1]; [3]
  MIC: 8 µg/mL (≈ 10.9 µM)
[1]; Staphylococcus epidermidis, read-out: MIC alone (antibiotic agent), S. epidermidis
  MIC: 8 µg/mL (≈ 10.9 µM)
[1]; [4]
  MIC: 8 µg/mL (≈ 10.9 µM)
[2]; Acinetobacter calcoaceticus, read-out: Erythromycin MIC + MBI 26, A. calcoaceticus AC001
  MIC: 1 µg/mL
[2]; Klebsiella pneumoniae, read-out: Erythromycin MIC + MBI 26, K. pneumoniae KP001
  MIC: 0.25 µg/mL
[2]; Klebsiella pneumoniae, read-out: Erythromycin MIC + MBI 26, K. pneumoniae KP002
  MIC: 0.5 µg/mL
[2]; Klebsiella pneumoniae, read-out: Erythromycin MIC Alone, K. pneumoniae KP002
  MIC: 256 µg/mL (≈ 349 µM)
[2]; Pseudomonas aeruginosa, read-out: Erythromycin MIC + MBI 26, P. aeruginosa PA041
  MIC: 4 µg/mL
[2]; Pseudomonas aeruginosa, read-out: Erythromycin MIC Alone, P. aeruginosa PA041
  MIC: 128 µg/mL (≈ 174 µM)

## COc1cccc(OC)c1C(=O)N[C@@H]1C(=O)N2[C@@H]1SC(C)(C)[C@@H]2C(=O)O [Methicillin]
[1]; S. haemolyticus, with MBI 26
  MIC comb. (antibiotic agent): 0.25 µg/mL (≈ 0.657 µM)
[1]; [4]
  MIC: 64 µg/mL (≈ 168 µM)

## CC1(C)S[C@@H]2[C@H](NC(=O)[C@H](N)c3ccccc3)C(=O)N2[C@H]1C(=O)O [Ampicillin]
[1]; S. aureus, with MBI 26
  MIC comb. (antibiotic agent): 0.25 µg/mL (≈ 0.715 µM)
[1]; S. haemolyticus, with MBI 26
  MIC comb. (antibiotic agent): 0.25 µg/mL (≈ 0.715 µM)
[1]; [3]
  MIC: 2 µg/mL (≈ 5.72 µM)
